Laboratory results: paper PMC10590419, “Structural and mechanistic insights into the inhibition of respiratory syncytial virus polymerase by a non-nucleoside inhibitor” (Communications Biology, 2023)
Read-outs that look alike come from different tables or passages of the source.

Target: recombinant RSV L+P (Human respiratory syncytial virus A, UniProt P28887)
Test: Primed single nucleotide incorporation (SNI) gel assay, recombinant RSV L+P
Assay type: biochemical, Human RSV (strain A2)
Procedure: RNA polymerase reaction samples consisted of 0.2 μM recombinant RSV L-P polymerase, 0.2 μM of an RNA template (Le11 or Tr14), and 400 μM of a short primer (sequences as indicated in the figures), mixed in a buffer containing 50 mM Tris pH 7.4, 2 mM dithiothreitol and 6 mM MgCl2. For the assay in Fig. 1d, reactions were started by adding 100 nM [α-^32P]GTP (3000 Ci/mmol) tracer and incubated at 30 °C for 10 min. […] Reactions were stopped by adding an equal volume of gel loading buffer containing 90% formamide, 50 mM EDTA, 0.05% Xylene Cyanol, and Bromophenol Blue. Samples were denatured at 95 °C for 5 min and run on a 22.5% polyacrylamide urea sequencing gel at 80 W. The gel was transferred onto a Whatman cellulose chromatography paper (Millipore Sigma) and dried on a gel dryer (Bio-Rad) for 1 h. The dried gel was exposed to a phosphor-screen, scanned on a Typhoon phosphorimager (GE Healthcare), and quantified using ImageQuant (GE Healthcare).

[1] = 5 µM, le-11, +1 site, replicates, 5 µM
[2] = 5 µM, le-11, +3 site, replicates, 5 µM
[3] = 5 µM, tr-14, +1 site, replicates, 5 µM
[4] = le-11, +1 site, 0.00390625 uM, replicates, 0.00390625 µM
[5] = le-11, +1 site, 0.0078125 uM, replicates, 0.0078125 µM
[6] = le-11, +1 site, 0.015625 uM, replicates, 0.015625 µM
[7] = le-11, +1 site, 0.03125 uM, replicates, 0.03125 µM
[8] = le-11, +1 site, 0.0625 uM, replicates, 0.0625 µM
[9] = le-11, +1 site, 0.125 uM, replicates, 0.125 µM
[10] = le-11, +1 site, 0.25 uM, replicates, 0.25 µM
[11] = le-11, +1 site, 0.5 uM, replicates, 0.5 µM

recombinant RSV L+P, sequence (P28887 whole entry): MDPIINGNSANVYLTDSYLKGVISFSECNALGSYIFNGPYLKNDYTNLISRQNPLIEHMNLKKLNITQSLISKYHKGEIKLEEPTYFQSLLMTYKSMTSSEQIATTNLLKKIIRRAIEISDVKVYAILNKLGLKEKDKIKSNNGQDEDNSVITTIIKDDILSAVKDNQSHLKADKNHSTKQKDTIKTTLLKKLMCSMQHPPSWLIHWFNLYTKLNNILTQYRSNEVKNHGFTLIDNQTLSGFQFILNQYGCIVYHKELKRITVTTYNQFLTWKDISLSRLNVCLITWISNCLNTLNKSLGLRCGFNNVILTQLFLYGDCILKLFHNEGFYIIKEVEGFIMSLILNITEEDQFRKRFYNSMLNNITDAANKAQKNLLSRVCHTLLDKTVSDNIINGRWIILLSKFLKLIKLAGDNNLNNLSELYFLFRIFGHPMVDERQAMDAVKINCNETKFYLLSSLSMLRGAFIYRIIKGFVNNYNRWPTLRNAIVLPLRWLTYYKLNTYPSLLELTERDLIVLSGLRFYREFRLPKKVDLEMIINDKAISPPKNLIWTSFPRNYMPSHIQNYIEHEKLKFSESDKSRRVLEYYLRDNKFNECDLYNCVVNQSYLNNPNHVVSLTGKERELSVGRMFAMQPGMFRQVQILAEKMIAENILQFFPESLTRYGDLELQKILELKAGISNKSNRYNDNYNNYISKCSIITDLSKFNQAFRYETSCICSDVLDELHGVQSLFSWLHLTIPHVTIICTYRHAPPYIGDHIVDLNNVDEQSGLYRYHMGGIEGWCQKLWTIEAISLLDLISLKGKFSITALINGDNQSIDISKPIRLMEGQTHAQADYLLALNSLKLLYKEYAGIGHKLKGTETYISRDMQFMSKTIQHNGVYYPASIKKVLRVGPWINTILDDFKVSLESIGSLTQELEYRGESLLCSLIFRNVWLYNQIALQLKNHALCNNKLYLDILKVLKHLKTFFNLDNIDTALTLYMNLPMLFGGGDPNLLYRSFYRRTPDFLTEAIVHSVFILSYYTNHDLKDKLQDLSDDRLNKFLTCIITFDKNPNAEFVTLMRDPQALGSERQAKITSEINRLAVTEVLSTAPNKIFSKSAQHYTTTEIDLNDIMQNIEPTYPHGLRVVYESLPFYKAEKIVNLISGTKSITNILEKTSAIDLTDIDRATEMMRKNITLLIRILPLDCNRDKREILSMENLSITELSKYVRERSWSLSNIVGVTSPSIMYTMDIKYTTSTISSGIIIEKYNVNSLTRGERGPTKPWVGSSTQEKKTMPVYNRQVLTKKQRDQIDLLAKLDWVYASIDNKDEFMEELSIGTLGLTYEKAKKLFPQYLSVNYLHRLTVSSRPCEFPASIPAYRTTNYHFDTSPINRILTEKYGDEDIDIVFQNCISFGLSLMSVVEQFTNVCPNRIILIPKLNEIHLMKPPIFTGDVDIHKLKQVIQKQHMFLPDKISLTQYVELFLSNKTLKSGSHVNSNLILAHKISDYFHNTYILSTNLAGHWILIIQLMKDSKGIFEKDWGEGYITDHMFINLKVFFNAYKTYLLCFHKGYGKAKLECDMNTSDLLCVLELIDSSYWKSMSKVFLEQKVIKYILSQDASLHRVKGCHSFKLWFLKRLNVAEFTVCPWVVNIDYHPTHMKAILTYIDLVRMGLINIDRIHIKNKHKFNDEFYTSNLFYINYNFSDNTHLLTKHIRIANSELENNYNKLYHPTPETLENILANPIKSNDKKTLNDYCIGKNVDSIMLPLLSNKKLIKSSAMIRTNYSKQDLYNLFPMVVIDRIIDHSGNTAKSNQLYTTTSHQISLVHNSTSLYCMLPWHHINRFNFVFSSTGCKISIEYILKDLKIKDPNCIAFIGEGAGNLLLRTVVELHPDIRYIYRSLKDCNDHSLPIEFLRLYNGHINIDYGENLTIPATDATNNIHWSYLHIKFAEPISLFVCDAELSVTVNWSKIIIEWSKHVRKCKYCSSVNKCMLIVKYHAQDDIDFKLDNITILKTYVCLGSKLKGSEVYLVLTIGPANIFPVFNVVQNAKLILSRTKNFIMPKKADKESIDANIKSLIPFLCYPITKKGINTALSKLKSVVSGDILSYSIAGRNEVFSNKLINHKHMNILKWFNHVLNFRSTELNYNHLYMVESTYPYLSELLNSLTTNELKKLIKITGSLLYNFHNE
recombinant RSV L+P, sequence (P03421 whole entry, further chain): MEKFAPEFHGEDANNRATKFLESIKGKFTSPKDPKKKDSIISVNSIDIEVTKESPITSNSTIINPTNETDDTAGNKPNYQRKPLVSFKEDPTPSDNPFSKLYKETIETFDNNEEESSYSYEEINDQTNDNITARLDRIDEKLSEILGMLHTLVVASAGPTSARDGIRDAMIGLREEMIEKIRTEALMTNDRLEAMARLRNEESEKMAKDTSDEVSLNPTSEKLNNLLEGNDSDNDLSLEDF

COc1cc(C(=O)NC[C@](O)(c2cc(C(C)(C)O)c(F)c(-c3ccc(F)cc3)n2)C(F)(F)F)cc2cc(C)nnc12 [JNJ-8003]
inhibition at 5 µM (5 µM, le-11, +1 site, N 2, read-out: % inhibition of SNI, AC>ACG, average): 88.8% | inhibition at 5 µM (5 µM, le-11, +1 site, N 2, read-out: % inhibition of SNI, ACG>ACGC, average): 2.75% | inhibition at 5 µM (5 µM, le-11, +1 site, N 2, read-out: % inhibition of SNI, ACGC>ACGCG, average): 94.8% | inhibition at 5 µM (5 µM, le-11, +1 site, N 2, read-out: % inhibition of SNI, ACGCG>ACGCGA, average): 96.9% | inhibition at 5 µM (5 µM, le-11, +1 site, N 2, read-out: % inhibition of SNI, ACGCGA>ACGCGAA, average): 85.3% | % inhibition of SNI, AC>ACG [1]: 88.48% | % inhibition of SNI, ACGC>ACGCG [1]: 96.78% | % inhibition of SNI, ACGCG>ACGCGA [1]: 98.45% | % inhibition of SNI, ACGCGA>ACGCGAA [1]: 88.02% | inhibition at 5 µM (5 µM, le-11, +1 site, replicates, read-out: % inhibition of SNI, AC>ACG): 89% | inhibition at 5 µM (5 µM, le-11, +1 site, replicates, read-out: % inhibition of SNI, ACGC>ACGCG): 92.7% | inhibition at 5 µM (5 µM, le-11, +1 site, replicates, read-out: % inhibition of SNI, ACGCG>ACGCGA): 95.4% | inhibition at 5 µM (5 µM, le-11, +1 site, replicates, read-out: % inhibition of SNI, ACGCGA>ACGCGAA): 82.6% | inhibition at 5 µM (5 µM, le-11, +3 site, N 2, read-out: % inhibition of SNI, GC>GCG, average): 96.5% | inhibition at 5 µM (5 µM, le-11, +3 site, N 2, read-out: % inhibition of SNI, GCG>GCGA, average): 74.8% | inhibition at 5 µM (5 µM, le-11, +3 site, N 2, read-out: % inhibition of SNI, GCGA>GCGAA, average): 97.6% | inhibition at 5 µM (5 µM, le-11, +3 site, N 2, read-out: % inhibition of SNI, GCGAA>GCGAAA, average): 93.8% | % inhibition of SNI, GC>GCG [2]: 97.71% | % inhibition of SNI, GCG>GCGA [2]: 79.85% | % inhibition of SNI, GCGA>GCGAA [2]: 98.25% | % inhibition of SNI, GCGAA>GCGAAA [2]: 91.04% | inhibition at 5 µM (5 µM, le-11, +3 site, replicates, read-out: % inhibition of SNI, GC>GCG): 95.3% | inhibition at 5 µM (5 µM, le-11, +3 site, replicates, read-out: % inhibition of SNI, GCG>GCGA): 69.8% | inhibition at 5 µM (5 µM, le-11, +3 site, replicates, read-out: % inhibition of SNI, GCGA>GCGAA): 97% | inhibition at 5 µM (5 µM, le-11, +3 site, replicates, read-out: % inhibition of SNI, GCGAA>GCGAAA): 96.5% | inhibition at 5 µM (5 µM, tr-14, +1 site, N 2, read-out: % inhibition of SNI, AC>ACG, average): 88.2% | inhibition at 5 µM (5 µM, tr-14, +1 site, N 2, read-out: % inhibition of SNI, ACG>ACGA, average): 8.03% | inhibition at 5 µM (5 µM, tr-14, +1 site, N 2, read-out: % inhibition of SNI, ACGA>ACGAG, average): 95% | inhibition at 5 µM (5 µM, tr-14, +1 site, N 2, read-out: % inhibition of SNI, ACGAG>ACGAGA, average): 88.8% | inhibition at 5 µM (5 µM, tr-14, +1 site, N 2, read-out: % inhibition of SNI, ACGAGA>ACGAGAA, average): 90% | % inhibition of SNI, AC>ACG [3]: 84.25% | % inhibition of SNI, ACGA>ACGAG [3]: 93.02% | % inhibition of SNI, ACGAG>ACGAGA [3]: 89.36% | % inhibition of SNI, ACGAGA>ACGAGAA [3]: 89.66% | inhibition at 5 µM (5 µM, tr-14, +1 site, replicates, read-out: % inhibition of SNI, AC>ACG): 92.2% | inhibition at 5 µM (5 µM, tr-14, +1 site, replicates, read-out: % inhibition of SNI, ACGA>ACGAG): 96.9% | inhibition at 5 µM (5 µM, tr-14, +1 site, replicates, read-out: % inhibition of SNI, ACGAG>ACGAGA): 88.2% | inhibition at 5 µM (5 µM, tr-14, +1 site, replicates, read-out: % inhibition of SNI, ACGAGA>ACGAGAA): 90.3% | SNI to the 3-mer primer from the +1 site (in words) (le and tr promoter RNA): did not inhibit | pACG formation, % inhibition [4]: 21.7616% | pACGCG formation, % inhibition [4]: 22.5312% | inhibition at 0.00390625 µM (le-11, +1 site, 0.00390625 uM, replicates, read-out: pACG formation, % inhibition): 15.7% | inhibition at 0.00390625 µM (le-11, +1 site, 0.00390625 uM, replicates, read-out: pACGC formation, % inhibition): 22.3% | inhibition at 0.00390625 µM (le-11, +1 site, 0.00390625 uM, replicates, read-out: pACGCG formation, % inhibition): 29.7% | pACG formation, % inhibition [5]: 22.0299% | pACGCG formation, % inhibition [5]: 31.4378% | inhibition at 0.0078125 µM (le-11, +1 site, 0.0078125 uM, replicates, read-out: pACG formation, % inhibition): 27.9% | inhibition at 0.0078125 µM (le-11, +1 site, 0.0078125 uM, replicates, read-out: pACGC formation, % inhibition): 23.6% | inhibition at 0.0078125 µM (le-11, +1 site, 0.0078125 uM, replicates, read-out: pACGCG formation, % inhibition): 35.9% | pACG formation, % inhibition [6]: 38.1202% | pACGCG formation, % inhibition [6]: 40.5036% | inhibition at 0.015625 µM (le-11, +1 site, 0.015625 uM, replicates, read-out: pACG formation, % inhibition): 38.1% | inhibition at 0.015625 µM (le-11, +1 site, 0.015625 uM, replicates, read-out: pACGC formation, % inhibition): 28% | inhibition at 0.015625 µM (le-11, +1 site, 0.015625 uM, replicates, read-out: pACGCG formation, % inhibition): 35% | pACG formation, % inhibition [7]: 56.5591% | pACGCG formation, % inhibition [7]: 63.5179% | inhibition at 0.03125 µM (le-11, +1 site, 0.03125 uM, replicates, read-out: pACG formation, % inhibition): 61.9% | inhibition at 0.03125 µM (le-11, +1 site, 0.03125 uM, replicates, read-out: pACGC formation, % inhibition): 28.5% | inhibition at 0.03125 µM (le-11, +1 site, 0.03125 uM, replicates, read-out: pACGCG formation, % inhibition): 63.6% | pACG formation, % inhibition [8]: 90.7902% | pACGCG formation, % inhibition [8]: 93.3045% | inhibition at 0.0625 µM (le-11, +1 site, 0.0625 uM, replicates, read-out: pACG formation, % inhibition): 93.3% | inhibition at 0.0625 µM (le-11, +1 site, 0.0625 uM, replicates, read-out: pACGC formation, % inhibition): 29.3% | inhibition at 0.0625 µM (le-11, +1 site, 0.0625 uM, replicates, read-out: pACGCG formation, % inhibition): 92.5% | pACG formation, % inhibition [9]: 92.6859% | pACGCG formation, % inhibition [9]: 94.8621% | inhibition at 0.125 µM (le-11, +1 site, 0.125 uM, replicates, read-out: pACG formation, % inhibition): 94.3% | inhibition at 0.125 µM (le-11, +1 site, 0.125 uM, replicates, read-out: pACGC formation, % inhibition): 30.8% | inhibition at 0.125 µM (le-11, +1 site, 0.125 uM, replicates, read-out: pACGCG formation, % inhibition): 94.8% | pACG formation, % inhibition [10]: 91.0112% | pACGCG formation, % inhibition [10]: 93.3897% | inhibition at 0.25 µM (le-11, +1 site, 0.25 uM, replicates, read-out: pACG formation, % inhibition): 94.2% | inhibition at 0.25 µM (le-11, +1 site, 0.25 uM, replicates, read-out: pACGC formation, % inhibition): 17.7% | inhibition at 0.25 µM (le-11, +1 site, 0.25 uM, replicates, read-out: pACGCG formation, % inhibition): 95.2% | pACG formation, % inhibition [11]: 89.7151% | pACGCG formation, % inhibition [11]: 94.5159%
